Values after ≈ are worked out from the molar mass of the structure shown.
What was measured:
Trichophyton asteroides [1] = assay: Test A-1 Anti-fungal Activity (MIC), microwell dilution; assay type: cell-based; details: T. asteroides, in vitro, 1×10^5 cells/ml
Protocol: (§1) Test A-1 Anti-fungal Activity (MIC)
The following results (Table 1) were obtained in an anti-fungal activity test in vitro against Aspergillus fumigatus, Candida albicans M-9 and Trichophyton asteroides. The concentration of the test cells was 1×10^5 cells/ml and the activity was measured by a microwell dilution method. The structure of the test compounds is referred to in the Examples.

Botrytis cinerea = assay: Test B-1 Control Test of Botrytis Rot (Gray Mold) of Cucumber; assay type: in vivo; details: 500 ppm, 3 days
Protocol: Test B-1 Control Test of Botrytis Rot (Gray Mold) of Cucumber Seedlings of Cucumber (Cultivar: Matsukaze) were planted and grown in soil in vinyl-chloride cups of 9 cm in diameter in a greenhouse. […] The treated cucumbers were kept for 3 days in a greenhouse (20° C.) and then disease degrees were counted. Standard of Evaluation […] (2) A slight soaked lesion on the reverse of the test leaf . . . × 5 (3) A slight fade of the leaf . . . × 10 (4) The inoculated part was faded and the fading expanded erosively . . . × 20 [formula]

Aspergillus fumigatus = assay: Test A-1 Anti-fungal Activity (MIC), microwell dilution; assay type: cell-based; details: in vitro, 1×10^5 cells/ml
Protocol: as §1
(§2) The concentration of the test cells was 1×10^5 cells/ml and the activity was measured by a microwell dilution method. The structure of the test compounds is referred to in the Examples.

Candida albicans M-9 = assay: as above; assay type: cell-based; details: M9, C. albicans M-9, in vitro, 1×10^5 cells/ml
Protocol: as §1, §2

Rhizoctonia solani = assay: Test B-6 Control Test to Damping-off of Cucumber; assay type: in vivo; details: R*, 500 ppm, soil drench, 1 week
Protocol: (§3) Test B-6 Control Test to Damping-off of Cucumber
(§4) Twenty cucumber seeds were sown into sterilized soil (150 ml) in a pot of 9 cm in diameter. The fungi, Phythium aphanidermatum, Fusarium oxysporum and Rhizoctonia solani were cultured on a wheat bran medium for 5 days and an additional 2 days thereafter were mixed with sterilized soil. The surface of the sown spots was covered with the above culture medium. A test solution (30 ml) at a prescribed concentration was poured into each pot. The pots were kept in a greenhouse (28° C.) for 1 week in the case of Pythium and Rhizoctonia and for 2 weeks in the case of Fusarium.
(§5) The disease degree was observed and percent disease degree was calculated by the following formula: […]
(§6) (1) No germination . . . x 4
(§7) (2) Germed but withered . . . x 3
(§8) (3) Disordered in 1/3 or more . . . x 2
(§9) (4) Disordered in less than 1/3 . . . x 1
(§10) (5) Not damaged . . . x 0 [formula]
(§11) The percent disease control was calculated in the same manner as in Test B-1.

Pythium aphanidermatum = assay: Test B-6 Control Test to Damping-off of Cucumber; assay type: in vivo; details: P*, 500 ppm, soil drench, 1 week
Protocol: as §3, §4, §5, §6, §7, §8, §9, §10, §11

Fusarium oxysporum = assay: Test B-6 Control Test to Damping-off of Cucumber; assay type: in vivo; details: F*, 500 ppm, soil drench, 2 weeks
Protocol: as §3, §4, §5, §6, §7, §8, §9, §10, §11

Pyricularia oryzae = assay type: in vivo; details: 500 ppm; rice plant blast, 24 hours + 7 days
Sphaerotheca fuliginea = assay: Test B-5 Control Test to Powdery Mildew of Cucumber; assay type: in vivo; details: 500 ppm, 2 weeks
Protocol: Test B-5 Control Test to Powdery Mildew of Cucumber
Each cucumber seedling was sprayed with 2.5 ml of a test solution. The seedlings were kept at 25°-26° C. for 1 day after the spraying and then sprayed with a conidium (1×10^5 conidia/ml) of Sphaerotheca fuliginea in a 100 ppm spreader solution (containing 20% polyoxyethylene glycol alkyl phenol ether and 12% lignin sulfonate) at a rate of 25 ml/20 cups.
The seedlings were kept in a greenhouse (25° C.) for 2 weeks and then observed.
Standard of Evaluation [formula]
as §11

Sclerotinia sclerotiorum = assay: Test B-2 Control Test to Sclerotinia Rot of Cucumber; assay type: in vivo; details: 48 h, 2 days, read-out: Percent Disease Control
Protocol: Test B-2 Control Test to Sclerotinia Rot of Cucumber
Cucumber seedlings were sprayed with 2.5 ml of a test solution in the same manner as in Test B-1. Afterthe spraying, the seedlings were kept at 25°-26° C. for a day and three disks of 4 mm in diameter containing mycelia of Sclerotinia sclerotiorum were put on a primary leaf and then 10 μl of PD broth were dropped on the disks. The treated seedlings were kept ina greenhouse (20° C.) for 2 days and then the diameters of the disease spots were measured by a pair of slide callipers. [formula]

[2] = tested on: Colletotrichum lagenarium; assay: Test B-4 Control Test to Anthracnose of Cucumber; assay type: in vivo; details: 500 ppm, 3 + 3 days
Protocol: Test B-4 Control Test to Anthracnose of Cucumber Each cucumber seedling was sprayed with 2.5 ml of a test solution in the same manner as in Test B-1. After the spraying, the seedlings were kept at 25°-26° C. for a day and were inoculated with five filter-paper disks of 6 mm in diameter saturated with a conidium suspension of Colletotrichum lagenarium at a concentration of 1×10^6 conidia/ml. The treated seedlings were kept in a greenhouse (25° C.) for 3 days and further kept at below 25° C. for 3 days. Standard of Evaluation The same as noted in Test B-3.

Mycoplasma hyopneumonia = assay: growth inhibition of a swine enzootic pneumonia-causative bacteria; assay type: cell-based; details: one range for the listed compounds, read-out: concentration inhibiting the growth
[3] = tested on: Pseudoperonospora cubensis; assay: Test B-3 Control Test to Downy Mildew of Cucumber; assay type: in vivo; details: 500 ppm, 7 days
Protocol: Test B-3 Control Test to Downy Mildew of Cucumber
Each cucumber seedling was sprayed with 2.5 ml of a test solution in the same manner as in Test B-1. After the spraying, the seedlings were kept at 25°-26° C. for a day and a zoosporangium suspension or Pseudoperonospora cubensis was inoculated at a rate of five spots per leaf on a primary leaf. The treated seedlings were kept in a greenhouse for 7 days and then observed.
(2) Slight disease at the inoculation spot . . . X5
(3) A disease spot in the same size as the inoculation spot (without spreading) . . . x10
(4) A disease spot larger than the inoculation spot . . . x20
Disease degree and percent disease control were calculated in the same manner as in Test B-1.

fungi = details: prior art, Japanese patent publications; cited from earlier work
Candida albicans = assay: Test A-2 Anti-fungal Activity (MCC); details: 48 h, read-out: MCC (Minimal Cidal Concentration)
Protocol: (§12) Some MCC (Minimal Cidal Concentration) values (Table 1) were obtained against Candida albicans and Trichophyton asteroides by the following method. After the MIC value was obtained by the microwell method, a loopful amount was picked up from the medium in which no growth of the fungus was observed, inoculated into a Subrouraud's glucose agar medium and incubated at 28° C. for 2 days in the case of C. albicans and for 7 days in the case of T. asteroides.

Trichophyton asteroides [4] = assay: Test A-2 Anti-fungal Activity (MCC); details: 168 h, read-out: MCC (Minimal Cidal Concentration)
Protocol: as §12

Mycoplasma gallisepticum = assay: minimum inhibition concentration; assay type: cell-based; details: Mycoplasmoides gallisepticum, one range for the listed compounds

Row | Structure (SMILES) | MIC (Trichophyton asteroides [1]) | Percent Disease Control (Botrytis cinerea) | MIC (Aspergillus fumigatus) | MIC (Candida albicans M-9) | pest or weed control at 500 ppm (Sclerotinia sclerotiorum) | Percent Disease Control [3] | further results
1 | Cc1cc(N(C)CC#CI)no1 [compound 32, 3-(N-methyl-N-3-iodo-2-propynyl)amino-5-methylisoxazole] | 3.1 µg/mL (≈ 11.2 µM) | 100% | 1.6 µg/mL (≈ 5.8 µM) | 1.6 µg/mL (≈ 5.8 µM) | 100% | – | Percent Disease Control (Rhizoctonia solani): 100%; Percent Disease Control (Pythium aphanidermatum): 100%; Percent Disease Control (Fusarium oxysporum): 50%; Percent Disease Control (Pyricularia oryzae): 98%; Percent Disease Control (Sphaerotheca fuliginea): 100%
2 | CN(CC#CI)c1onc(-c2ccccc2)c1Cl [Comp. 27] | – | – | – | – | – | – | Percent Disease Control (Pyricularia oryzae): 100%
3 | Cc1onc(NCC#CI)c1Cl [compound 34, 3-(3-iodo-2-propynyl)-amino-4-chloro-5-methylisoxazole] | – | 100% | – | – | – | 100% | Percent Disease Control [2]: 100%; MIC (Mycoplasma hyopneumonia): 3.13 to 12.5 µg/mL (≈ 10.6 to 42.2 µM)
4 | IC#CCOc1noc2ccccc12 [3-(3-iodo-2-propynyloxy)benzisoxazole] | – | – | – | – | – | – | anti-fungal activity (fungi): has the same activity
5 | CN(CC#CI)c1cc(-c2ccco2)no1 [Comp. 10] | 0.8 µg/mL (≈ 2.44 µM) | – | 1.6 µg/mL (≈ 4.88 µM) | 0.8 µg/mL (≈ 2.44 µM) | – | – | –
6 | CC(C)c1noc(N(C)CC#CI)c1Cl [Comp. 26] | 1.6 µg/mL (≈ 4.73 µM) | – | 50 µg/mL (≈ 148 µM) | 6.3 µg/mL (≈ 18.6 µM) | – | 100% | Percent Disease Control [2]: 100%; Percent Disease Control (Sphaerotheca fuliginea): 100%
7 | CN(CC#CI)c1cc(-c2cccs2)no1 [Comp. 11] | 1.6 µg/mL (≈ 4.65 µM) | 100% | 3.1 µg/mL (≈ 9.01 µM) | 0.8 µg/mL (≈ 2.32 µM) | – | – | MFC (Candida albicans): 12.5 µg/mL (≈ 36.3 µM); MFC (Trichophyton asteroides [4]): 1.6 µg/mL (≈ 4.65 µM)
8 | CC(C)c1cc(N(C)CC#CI)on1 [Comp. 6] | 1.6 µg/mL (≈ 5.26 µM) | – | 1.6 µg/mL (≈ 5.26 µM) | 0.8 µg/mL (≈ 2.63 µM) | 100% | – | Percent Disease Control [2]: 100%; MFC (Candida albicans): 25 µg/mL (≈ 82.2 µM); MFC (Trichophyton asteroides [4]): 3.1 µg/mL (≈ 10.2 µM)
9 | Cc1noc(N(C)CC#CI)c1C [Comp. 20] | 0.8 µg/mL (≈ 2.76 µM) | – | 0.8 µg/mL (≈ 2.76 µM) | 0.8 µg/mL (≈ 2.76 µM) | 100% | – | MFC (Candida albicans): 50 µg/mL (≈ 172 µM); MFC (Trichophyton asteroides [4]): 3.1 µg/mL (≈ 10.7 µM); MIC (Mycoplasma gallisepticum): 6.25 to 12.5 µg/mL (≈ 21.5 to 43.1 µM); Percent Disease Control (Rhizoctonia solani): 100%; Percent Disease Control (Pythium aphanidermatum): 100%; Percent Disease Control (Fusarium oxysporum): 57%; Percent Disease Control (Pyricularia oryzae): 100%
10 | Clc1c(-c2ccccc2)noc1NCC#CI [Comp. 2, 3-phenyl-4-chloro-5-(3-iodo-2-propynyl)aminoisoxazole] | 0.4 µg/mL (≈ 1.12 µM) | – | 6.2 µg/mL (≈ 17.3 µM) | 0.1 µg/mL (≈ 0.279 µM) | – | – | –
11 | Cc1onc(N(C)CC#CI)c1Cl [compound 33, 3-(N-methyl-N-3-iodo-2-propynyl)amino-4-chloro-5-methylisoxazole] | 0.8 µg/mL (≈ 2.58 µM) | – | 3.1 µg/mL (≈ 9.98 µM) | 1.6 µg/mL (≈ 5.15 µM) | 100% | 100% | –
12 | CCc1cc(N(C)CC#CI)on1 [Comp. 5] | 1.6 µg/mL (≈ 5.52 µM) | 100% | 1.6 µg/mL (≈ 5.52 µM) | 0.8 µg/mL (≈ 2.76 µM) | 100% | 95.0% | MIC (Mycoplasma gallisepticum): 6.25 to 12.5 µg/mL (≈ 21.5 to 43.1 µM)
13 | CN(CC#CI)c1onc2c1CCCC2 [Comp. 15] | – | 100% | – | – | – | – | MIC (Mycoplasma hyopneumonia): 3.13 to 12.5 µg/mL (≈ 9.9 to 39.5 µM)
